Reference: patent publication US10363239B2, “Method for inhibiting growth of cancer cells” (Pain Therapeutics, Inc., priority 2013, dated 2019)
Read-outs that look alike come from different tables or passages of the source.

Key:
mu opiate receptor (MOR) = test: MOR agonist activity using [35S]GTPγS binding assay in striatal membranes; assay type: biochemical; conditions: for MOR agonist activity ([35S]GTPγS binding), FLNA-Binding Compound as Agonist 1 μM + BFNA: 1 μM compound + 1 μM β-funaltrexamine
Procedure, shortened: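 Striatal membranes (200 μg) were preincubated 5 min at 30 °C in HEPES pH 7.5 with 100 mM NaCl, 1 mM MgCl2 and 0.5 nM [35S]GTPγS, then 5 min more with 0.1–10 μM compound. Gαo was immunoprecipitated and bound radioactivity counted by scintillation.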

[1] = biological target: FLNA pentapeptide of SEQ ID NO: 1 (Bn-VAKGL) (Homo sapiens, UniProt P21333); test: FITC-NLX-based FLNA screening assay (inhibition of FITC-naloxone binding to Bn-VAKGL on streptavidin plates); conditions: 10 nM FITC-NLX
[2] = FLNA-binding compound 0.01 μM, read-out: Percent Binding Inhibition
[3] = FLNA-binding compound 0.1 μM, read-out: Percent Binding Inhibition
[4] = FLNA-binding compound 1 μM, read-out: Percent Binding Inhibition
[5] = 0.1 μM compound relative to DAMGO
[6] = 1 μM compound + BFNA relative to DAMGO + BFNA
[7] = 1 μM compound relative to DAMGO
[8] = read-out: Percent Binding Inhibition, FLNA-binding compound 0.01 μM
[9] = read-out: Percent Binding Inhibition, FLNA-binding compound 0.1 μM
[10] = read-out: Percent Binding Inhibition, FLNA-binding compound 1 μM
[11] = Series C-1, 0.1 μM compound, relative to DAMGO
[12] = Series C-1, 0.1 μM compound, [35S]GTPγS binding to Gαo, striatal membranes
[13] = Series C-1, 1 μM compound + 1 μM β-FNA
[14] = Series C-1, 1 μM compound + β-FNA, relative to DAMGO + BFNA
[15] = Series C-1, 1 μM compound, relative to DAMGO
[16] = Series C-1, 1 μM compound, [35S]GTPγS binding to Gαo, striatal membranes
[17] = Series B, 0.1 μM compound, relative to DAMGO
[18] = Series B, 0.1 μM compound, [35S]GTPγS binding to Gαo, striatal membranes
[19] = Series B, 1 μM compound + 1 μM β-FNA
[20] = Series B, 1 μM compound + β-FNA, relative to DAMGO + BFNA
[21] = Series B, 1 μM compound, relative to DAMGO
[22] = Series B, 1 μM compound, [35S]GTPγS binding to Gαo, striatal membranes

Row | SMILES | inhibition at 0.01 µM [1, 2] [%] | inhibition at 0.1 µM [1, 3] [%] | inhibition at 1 µM [1, 4] [%] | MOR agonist activity ([35S]GTPγS binding), FLNA-Binding Compound as Agonist 0.1 μM (mu opiate receptor (MOR); 0.1 μM compound) [%] | % DAMGO (0.1 μM) (mu opiate receptor (MOR); [5]) [%] | MOR agonist activity ([35S]GTPγS binding), FLNA-Binding Compound as Agonist 1 μM (mu opiate receptor (MOR); 1 μM compound) [%] | MOR agonist activity ([35S]GTPγS binding), FLNA-Binding Compound as Agonist 1 μM + BFNA (mu opiate receptor (MOR)) [%] | % DAMGO + BFNA (mu opiate receptor (MOR); [6]) [%] | % DAMGO (1 μM) (mu opiate receptor (MOR); [7]) [%] | inhibition at 0.01 µM [1, 8] [%] | inhibition at 0.1 µM [1, 9] [%] | inhibition at 1 µM [1, 10] [%] | also measured
1 | O=[N+]([O-])c1ccc(S(=O)(=O)N2CCC3(CC2)NCCCO3)cc1 [Compound C0045] | 39.1 | 48.9 | 53.7 |  |  |  |  |  |  |  |  |  | % DAMGO (0.1 μM) (mu opiate receptor (MOR); Series C-2, 0.1 μM compound, relative to DAMGO): 88.3%; MOR agonist activity, percent [35S]GTPγS binding at the stated compound concentration (mu opiate receptor (MOR); Series C-2, 0.1 μM compound, [35S]GTPγS binding to Gαo, striatal membranes): 149.2%; MOR agonist activity, percent [35S]GTPγS binding at the stated compound concentration (mu opiate receptor (MOR); Series C-2, 1 μM compound + 1 μM β-FNA): 105.3%; % DAMGO + BFNA (mu opiate receptor (MOR); Series C-2, 1 μM compound + β-FNA, relative to DAMGO + BFNA): 634.3%; % DAMGO (1 μM) (mu opiate receptor (MOR); Series C-2, 1 μM compound, relative to DAMGO): 109.1%; MOR agonist activity, percent [35S]GTPγS binding at the stated compound concentration (mu opiate receptor (MOR); Series C-2, 1 μM compound, [35S]GTPγS binding to Gαo, striatal membranes): 238.8%
2 | CC1CCC(C(C)C)C(OCC(O)Cn2cccc2)C1 (stereo not drawn) [Compound A0038] |  |  |  | 176.7 | 90.1 | 234.5 | 107.0 | 144.8 | 85.0 | 46.4 | 52.3 | 56.6 | 
3 | CC1CCCC(OCC(O)CN2CC(C)OC(C)C2)C1 (stereo not drawn) [Compound A0021] | 36.8 | 43.4 | 49.5 | 133.3 | 79.8 | 275.3 | 12.1 | 34.9 | 112.4 |  |  |  | 
4 | CC1CCC(C(C)C)C(OCC(O)CN2CC(C)CC(C)C2)C1 (stereo not drawn) [Compound A0008] | 34.5 | 33.5 | 39.8 | 163.8 | 109.6 | 235.0 | 133.9 | 505.3 | 102.1 |  |  |  | 
5 | O=S(=O)(c1ccc(Cl)cc1)N1CCC2(CC1)OCCN2S(=O)(=O)c1ccc(Cl)cc1 [Compound C0067] | 31.3 | 39.7 | 45 |  |  |  |  |  |  |  |  |  | % DAMGO (0.1 μM) (mu opiate receptor (MOR); [11]): 82.9%; Concentration of FLNA-Binding Compound as Agonist 0.1 μM (mu opiate receptor (MOR); [12]): 142.7%; Concentration of FLNA-Binding Compound as Agonist 1 μM + BFNA (mu opiate receptor (MOR); [13]): 33.5%; % DAMGO + BFNA (mu opiate receptor (MOR); [14]): 97.1%; % DAMGO (1 μM) (mu opiate receptor (MOR); [15]): 81.5%; Concentration of FLNA-Binding Compound as Agonist 1 μM (mu opiate receptor (MOR); [16]): 179.0%
6 | CC1CN(CC(O)COc2cccc(C(F)(F)F)c2)CC(C)O1 (stereo not drawn) [Compound A0051] | 45.9 | 45.4 | 52.1 | 290.4 | 148.0 | 386.6 | 211.6 | 286.3 | 140.1 |  |  |  | 
7 | COc1ccc(CCC(O)CC2c3c(cc4c(c3OC)OCO4)CCN2C)cc1 (stereo not drawn) [Compound B0048] | 34.7 | 41.9 | 43.9 |  |  |  |  |  |  |  |  |  | % DAMGO (0.1 μM) (mu opiate receptor (MOR); [17]): 104.8%; MOR agonist activity, percent [35S]GTPγS binding at the stated compound concentration (mu opiate receptor (MOR); [18]): 185.1%; MOR agonist activity, percent [35S]GTPγS binding at the stated compound concentration (mu opiate receptor (MOR); [19]): 78.5%; % DAMGO + BFNA (mu opiate receptor (MOR); [20]): 298.5%; % DAMGO (1 μM) (mu opiate receptor (MOR); [21]): 87.8%; MOR agonist activity, percent [35S]GTPγS binding at the stated compound concentration (mu opiate receptor (MOR); [22]): 223.4%
8 | COc1c2c(cc3c1C(CC(=O)c1ccc(N4CCOCC4)cc1)[N+](C)(C)CC3)OCO2 (stereo not drawn) [Compound B0004] |  |  |  |  |  |  |  |  |  | 38.9 | 50 | 54.8 | % DAMGO (0.1 μM) (mu opiate receptor (MOR); [17]): 102.8%; MOR agonist activity, percent [35S]GTPγS binding at the stated compound concentration (mu opiate receptor (MOR); [18]): 170.3%; MOR agonist activity, percent [35S]GTPγS binding at the stated compound concentration (mu opiate receptor (MOR); [19]): 72.0%; % DAMGO + BFNA (mu opiate receptor (MOR); [20]): 110.8%; % DAMGO (1 μM) (mu opiate receptor (MOR); [21]): 85.8%; MOR agonist activity, percent [35S]GTPγS binding at the stated compound concentration (mu opiate receptor (MOR); [22]): 231.7%
9 | O=S(=O)(c1ccc(OC(F)(F)F)cc1)N1CCC2(CC1)OCCN2S(=O)(=O)c1ccc(OC(F)(F)F)cc1 [Compound C0006] |  |  |  |  |  |  |  |  |  | 41.6 | 46.8 | 51.8 | % DAMGO (0.1 μM) (mu opiate receptor (MOR); [11]): 70.6%; Concentration of FLNA-Binding Compound as Agonist 0.1 μM (mu opiate receptor (MOR); [12]): 121.5%; Concentration of FLNA-Binding Compound as Agonist 1 μM + BFNA (mu opiate receptor (MOR); [13]): 4.6%; % DAMGO + BFNA (mu opiate receptor (MOR); [14]): 7.2%; % DAMGO (1 μM) (mu opiate receptor (MOR); [15]): 73.8%; Concentration of FLNA-Binding Compound as Agonist 1 μM (mu opiate receptor (MOR); [16]): 204.0%
